Experimental data published in paper PMC4585798 (Scientific Reports, 2015).
Positions of bridges follow the written chain, without caps; N, C: chain ends. Residues, ends and D or L forms follow the SMILES beside them.

Columns and labels:
Assay in all cases: cell-based
hα9rα10 nAChR = hα9rα10 nAChR (UniProt Q9JLB5+Q9UGM1); set-up: species or system human α9 and rat α10
hα9α10[L7H] nAChR = hα9α10[L7H] nAChR (Homo sapiens, UniProt Q9GZZ6+Q9UGM1, L31H); format: cell-based
hα9α10 nAChR = hα9α10 nAChR (Homo sapiens, UniProt Q9GZZ6+Q9UGM1)
hα9α10 nAChR, sequence (Q9UGM1 26-479 limits assumed): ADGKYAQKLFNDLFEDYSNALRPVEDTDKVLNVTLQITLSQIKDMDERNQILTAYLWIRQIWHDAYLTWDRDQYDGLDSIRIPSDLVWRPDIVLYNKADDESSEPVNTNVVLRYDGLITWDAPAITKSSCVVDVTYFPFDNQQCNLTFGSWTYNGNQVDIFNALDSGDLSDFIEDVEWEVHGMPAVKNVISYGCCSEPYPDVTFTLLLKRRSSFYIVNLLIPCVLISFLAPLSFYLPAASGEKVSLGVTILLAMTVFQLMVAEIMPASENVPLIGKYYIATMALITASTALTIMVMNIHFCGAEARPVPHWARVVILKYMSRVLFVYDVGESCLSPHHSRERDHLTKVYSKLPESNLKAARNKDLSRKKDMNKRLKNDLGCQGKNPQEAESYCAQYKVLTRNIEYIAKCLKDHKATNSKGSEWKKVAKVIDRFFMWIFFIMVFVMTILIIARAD
hα9α10 nAChR, sequence (Q9GZZ6 25-450 limits assumed): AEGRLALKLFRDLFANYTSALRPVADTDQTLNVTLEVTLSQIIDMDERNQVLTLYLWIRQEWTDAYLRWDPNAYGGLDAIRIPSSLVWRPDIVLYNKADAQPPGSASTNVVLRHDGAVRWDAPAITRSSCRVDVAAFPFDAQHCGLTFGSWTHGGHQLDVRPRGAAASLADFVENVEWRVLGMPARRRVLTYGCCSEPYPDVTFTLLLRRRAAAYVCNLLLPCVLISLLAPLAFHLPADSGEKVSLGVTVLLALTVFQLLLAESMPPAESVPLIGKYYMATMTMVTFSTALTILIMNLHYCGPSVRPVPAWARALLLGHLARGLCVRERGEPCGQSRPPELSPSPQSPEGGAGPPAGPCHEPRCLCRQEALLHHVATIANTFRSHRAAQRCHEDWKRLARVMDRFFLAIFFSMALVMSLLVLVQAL

rα9α10 nAChR = rα9α10 nAChR (Rattus norvegicus, UniProt P43144+Q9JLB5)
rα9α10 nAChR, sequence (P43144 26-479 limits assumed): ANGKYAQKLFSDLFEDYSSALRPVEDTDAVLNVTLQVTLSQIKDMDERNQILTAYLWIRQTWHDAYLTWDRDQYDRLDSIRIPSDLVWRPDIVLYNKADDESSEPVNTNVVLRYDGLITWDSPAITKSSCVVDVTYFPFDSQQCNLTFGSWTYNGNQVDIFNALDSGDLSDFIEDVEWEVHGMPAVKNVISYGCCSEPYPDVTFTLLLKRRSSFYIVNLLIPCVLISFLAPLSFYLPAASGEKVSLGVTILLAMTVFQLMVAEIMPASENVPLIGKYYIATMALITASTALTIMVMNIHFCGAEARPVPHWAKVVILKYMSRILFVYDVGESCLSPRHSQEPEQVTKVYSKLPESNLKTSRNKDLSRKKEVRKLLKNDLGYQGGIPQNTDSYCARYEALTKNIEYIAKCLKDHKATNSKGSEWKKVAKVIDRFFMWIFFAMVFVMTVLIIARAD
rα9α10 nAChR, sequence (Q9JLB5 25-447 limits assumed): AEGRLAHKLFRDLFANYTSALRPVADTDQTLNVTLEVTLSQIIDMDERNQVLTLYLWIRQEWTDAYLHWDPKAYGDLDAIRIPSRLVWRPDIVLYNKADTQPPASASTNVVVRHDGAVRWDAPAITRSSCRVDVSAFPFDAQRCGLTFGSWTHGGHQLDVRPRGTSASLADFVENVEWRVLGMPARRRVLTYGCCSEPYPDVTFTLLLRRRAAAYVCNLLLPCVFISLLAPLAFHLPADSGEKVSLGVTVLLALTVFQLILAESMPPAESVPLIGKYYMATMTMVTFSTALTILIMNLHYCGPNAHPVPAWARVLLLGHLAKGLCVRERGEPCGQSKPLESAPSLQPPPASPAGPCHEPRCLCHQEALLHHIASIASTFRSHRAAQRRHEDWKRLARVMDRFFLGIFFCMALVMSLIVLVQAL

hα9α10[L7H] nAChR, sequence (Q9UGM1 26-479 limits assumed, stated change not applied): as the sequence (Q9UGM1 26-479 limits assumed) above
hα9α10[L7H] nAChR, sequence (Q9GZZ6 25-450 L31H limits assumed, stated change not applied): as the sequence (Q9GZZ6 25-450 limits assumed) above, with L7H counted along it
hα9rα10 nAChR, sequence (Q9UGM1 26-479 limits assumed): as the sequence (Q9UGM1 26-479 limits assumed) above
hα9rα10 nAChR, sequence (Q9JLB5 25-447 limits assumed): as the sequence (Q9JLB5 25-447 limits assumed) above

CSCC[C@H](NC(=O)[C@@H](NC(=O)[C@@H]1CSSC[C@@H]2NC(=O)[C@H](CC(=O)O)NC(=O)[C@H](C)NC(=O)[C@H](CCCNC(=N)N)NC(=O)[C@H](C)NC(=O)[C@@H]3CSSC[C@H](NC(=O)CNC(=O)[C@H](Cc4c[nH]cn4)NC(=O)CNC(=O)[C@H](CCCNC(=N)N)NC(=O)[C@H](Cc4c[nH]c5ccccc45)NC(=O)[C@H]([C@@H](C)O)NC(=O)[C@H](Cc4c[nH]cn4)NC(=O)[C@H](Cc4ccc(O)cc4)NC(=O)[C@H](C(C)C)NC(=O)[C@H](CSSC[C@H](NC(=O)[C@H](CC(C)C)NC(=O)[C@H](CCCNC(=N)N)NC(=O)[C@@H](N)[C@@H](C)O)C(=O)N[C@@H](CO)C(=O)N[C@@H]([C@@H](C)O)C(=O)N[C@@H](CCSC)C(=O)N[C@@H](CO)C(=O)N3)NC(=O)[C@H]([C@@H](C)O)NC2=O)C(=O)N[C@@H](CO)C(=O)N1)C(C)C)C(=O)O [GeXXA-CTD] (H-TRLCSTMSCARADCTCVYHTWRGHGCSCVM-OH; disulfide 4-16, 9-26, 14-28)
IC50 (hα9rα10 nAChR): 224 nM
IC50 (hα9α10[L7H] nAChR): 183 nM
IC50 (hα9α10 nAChR): 2020 nM
IC50 (rα9α10 nAChR): 198 nM
